Positions of bridges follow the written chain, without caps; N, C: chain ends. Non-standard residues stand in square brackets, D forms with d. Residues, ends and D or L forms follow the SMILES beside them. dPhe(4-Br) = N[C@H](Cc1ccc(Br)cc1)C(=O)O; d(hPhe) = N[C@H](CCc1ccccc1)C(=O)O; NMeR = CN[C@@H](CCCNC(=N)N)C(=O)O; dNMeF = CN[C@H](Cc1ccccc1)C(=O)O; hCit = NC(=O)NCCCC[C@H](N)C(=O)O; Cit = NC(=O)NCCC[C@H](N)C(=O)O; Nle = CCCC[C@H](N)C(=O)O; Aib = CC(C)(N)C(=O)O A value given as a limit tells only on which side of the number the result lay.

In one assay the target is T1, human MC4R (Homo sapiens, UniProt P32245).
T1 construct: host or cells: HEK-293 cells stably expressing the GScAMP22F split-luciferase cAMP sensor and hMC4R, G418 selection
As to the kind of experiment: split-luciferase cAMP sensor assay, agonist mode (measurement window 1), hMC4R. The assay is classed as cell-based. The following applies: for Emax: read-out: MC4R cAMP % max activation. The method in brief:
(§1)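 EC50 values come from a four-parameter variable-slope fit of luminescence in measurement window 1, capturing direct peptide effects on receptor-expressing cells with a cAMP22f luciferase sensor. Cells were preloaded with 4% D-luciferin, serum-free medium; 20 μM forskolin normalized for cell number and transducer efficiency.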

Assay [1] concerns the target T2, human MC3R (Homo sapiens, UniProt P41968).
T2 construct: expressed in transfected cells; host or cells: HEK-293 cells stably expressing the GScAMP22F split-luciferase cAMP sensor (parent reporter line from Promega); MC3R clone generated in-house, G418 selection
As to the kind of experiment: split-luciferase cAMP sensor assay, agonist mode (measurement window 1), hMC3R. The following applies: agonist mode, hMC3R stable cell line; for Emax: read-out: MC3R cAMP % max activation; for EC50: read-out: MC3R cAMP EC50. The assay is classed as cell-based. Summed up:
as §1

In assay [2] the target is human MC3R (human, UniProt P41968 1-323). As to the kind of experiment: cell-based or functional assay.
Another assay has as its target human MC4R receptor (human, UniProt P32245 1-332). Briefly: cell-based or functional assay.
Setting [3] is: agonist mode, hMC4R stable cell line.

Sequence of human MC3R (human, UniProt P41968 1-323) (P41968 whole entry): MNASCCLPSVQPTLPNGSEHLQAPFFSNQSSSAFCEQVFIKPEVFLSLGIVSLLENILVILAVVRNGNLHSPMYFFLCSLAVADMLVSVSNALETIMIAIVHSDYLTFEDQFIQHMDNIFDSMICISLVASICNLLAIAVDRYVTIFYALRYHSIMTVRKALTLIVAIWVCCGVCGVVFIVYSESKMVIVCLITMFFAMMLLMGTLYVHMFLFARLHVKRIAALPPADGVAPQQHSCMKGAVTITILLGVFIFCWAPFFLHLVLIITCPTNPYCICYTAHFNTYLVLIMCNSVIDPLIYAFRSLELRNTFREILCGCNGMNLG
T2 sequence (P41968 whole entry): as above
Sequence of human MC4R receptor (P32245 whole entry): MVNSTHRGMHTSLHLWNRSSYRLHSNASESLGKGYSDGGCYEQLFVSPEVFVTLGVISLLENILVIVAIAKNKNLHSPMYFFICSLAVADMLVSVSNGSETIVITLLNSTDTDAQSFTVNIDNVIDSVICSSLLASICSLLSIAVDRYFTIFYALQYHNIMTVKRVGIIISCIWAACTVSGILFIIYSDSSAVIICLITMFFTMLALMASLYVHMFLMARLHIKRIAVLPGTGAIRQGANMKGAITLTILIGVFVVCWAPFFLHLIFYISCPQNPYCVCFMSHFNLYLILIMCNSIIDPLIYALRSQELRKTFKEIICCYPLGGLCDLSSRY
T1 sequence (P32245 whole entry): as above

On to `CC(=O)N[C@H]1CSSC[C@@H](C(N)=O)NC(=O)[C@H](Cc2ccccc2)NC(=O)[C@H](CCCNC(=N)N)NC(=O)[C@@H](Cc2ccc(Br)cc2)NC(=O)[C@H](CCCNC(=N)N)NC(=O)CNC1=O` [CTX-1640, cyclo(Cys-Gly-Arg-D-Phe(4-Br)-Arg-Phe-Cys)] (Ac-CGR[dPhe(4-Br)]RFC-NH2; disulfide 1-7 (inferred)), for which, at human MC4R, the “MC4R selectivity vs MC1R” value is 3.72 and the “MC4R selectivity vs MC3R” value is 3.09. Also, the Emax at human MC4R (setting [3]) was 100%. On human MC3R [1], the Emax is 27% and the EC50 (in general, the concentration giving half of the maximal effect) came out at 10 nM.
For the molecule `CC(=O)N[C@@H](CCCNC(=N)N)C(=O)N[C@H]1CSSC[C@@H](C(N)=O)NC(=O)[C@@H](Cc2c[nH]c3ccccc23)NC(=O)[C@H](CCCNC(=N)N)NC(=O)[C@@H](Cc2ccc(Br)cc2)NC(=O)[C@H](CCCNC(=N)N)N(C)C(=O)[C@@H](C)NC1=O` [CTX-1248, Arg-cyclo(Cys-D-Ala-NMe-Arg-D-Phe(4-Br)-Arg-D-Trp-Cys)] (Ac-RC[dA][NMeR][dPhe(4-Br)]R[dW]C-NH2; disulfide 2-8 (inferred)), at human MC4R, the “MC4R selectivity vs MC1R” value worked out at 1.31. In addition, the “MC4R selectivity vs MC3R” value on human MC4R turned out to be 1.36. For the same molecule, the figures for the Emax on human MC4R (setting [3]) and at human MC3R [1] were 47% and 18%, respectively. In addition, the EC50 at human MC4R (agonist mode, hMC4R stable cell line, read-out: MC4R cAMP EC50) was 2 nM; at human MC3R [1] it was 2.8 nM.
In the case of `COc1ccc(C[C@H]2NC(=O)[C@H](CCCNC(=N)N)NC(=O)CNC(=O)[C@@H](NC(C)=O)CSSC[C@@H](C(N)=O)NC(=O)[C@H](Cc3ccccc3)NC(=O)[C@H](CCCNC(=N)N)NC2=O)cc1` [CTX-1641, cyclo(Cys-Gly-Arg-D-Tyr(4-OMe)-Arg-Phe-Cys)] (Ac-CGR[dY](Me)RFC-NH2; disulfide 1-7), on human MC4R, the “MC4R selectivity vs MC1R” value is given as 0.28 and the “MC4R selectivity vs MC3R” value came out at 1.18. Also, the Emax at human MC4R (setting [3]) came to 104%. In addition, on human MC3R [1], the Emax was found to be 22% and the EC50 was 52 nM.
Regarding `CC(=O)N[C@@H](CCCNC(=N)N)C(=O)N[C@H]1CSSC[C@@H](C(N)=O)NC(=O)[C@@H](Cc2c[nH]c3ccccc23)NC(=O)[C@H](CCCNC(=N)N)NC(=O)[C@@H](Cc2ccccc2)N(C)C(=O)[C@H](CCCNC(=N)N)NC(=O)[C@@H](C)NC1=O` [CTX-1272, Arg-cyclo(Cys-D-Ala-Arg-NMe-D-Phe-Arg-D-Trp-Cys)] (Ac-RC[dA]R[dNMeF]R[dW]C-NH2; disulfide 2-8 (inferred)), at human MC4R, the “MC4R selectivity vs MC1R” value came to 0.21 and the “MC4R selectivity vs MC3R” value is 0.9. Also, at human MC4R (setting [3]), the Emax amounted to 5.3%. Moreover, at human MC3R [1], the Emax came out at 0.9%.
On to `CC(=O)N[C@@H](CCCNC(=N)N)C(=O)N[C@H]1CSSC[C@@H](C(N)=O)NC(=O)[C@@H](Cc2c[nH]c3ccccc23)NC(=O)[C@H](CCCNC(=N)N)NC(=O)[C@@H](Cc2ccc(Br)cc2)NC(=O)[C@@H](CCCNC(=N)N)NC(=O)[C@@H](C)NC1=O` [CTX-1250, Arg-cyclo(Cys-D-Ala-D-Arg-D-Phe(4-Br)-Arg-D-Trp-Cys)] (Ac-RC[dA][dR][dPhe(4-Br)]R[dW]C-NH2; disulfide 2-8 (inferred)), for which, on human MC4R, the “MC4R selectivity vs MC1R” value worked out at 1.06 and the “MC4R selectivity vs MC3R” value was determined as 11. In addition, the Emax on human MC4R (setting [3]) was 8.7%. Besides, on human MC3R [1], the Emax was 10%.
In the case of `CC(=O)N[C@@H](CCCNC(=N)N)C(=O)N[C@H]1CSSC[C@@H](C(N)=O)NC(=O)[C@@H](Cc2c[nH]c3ccccc23)NC(=O)[C@H](CCCNC(=N)N)NC(=O)[C@@H](CCc2ccccc2)NC(=O)[C@H](CCCNC(=N)N)NC(=O)[C@@H](C)NC1=O` [CTX-1277, Arg-cyclo(Cys-D-Ala-Arg-D-Hph-Arg-D-Trp-Cys)] (Ac-RC[dA]R[d(hPhe)]R[dW]C-NH2; disulfide 2-8 (inferred)), at human MC4R, the “MC4R selectivity vs MC1R” value worked out at 0.05 and the “MC4R selectivity vs MC3R” value amounted to 0.1. Also, the Emax at human MC4R (setting [3]) is 29%. Besides, the Emax at human MC3R [1] was found to be 5.2%.
Consider `CC(=O)N[C@@H](CCCNC(=N)N)C(=O)N[C@H]1CSSC[C@@H](C(=O)N[C@@H](CCCCN)C(=O)N2CCC[C@H]2C(N)=O)NC(=O)[C@@H](Cc2c[nH]c3ccccc23)NC(=O)[C@H](CCCNC(=N)N)NC(=O)[C@@H](Cc2ccc(Br)cc2)NC(=O)[C@H](CCCNC(=N)N)NC(=O)[C@@H](C)NC1=O` [CTX-1217, Arg-cyclo(Cys-D-Ala-Arg-D-Phe(4-Br)-Arg-D-Trp-Cys)-Lys-Pro] (Ac-RC[dA]R[dPhe(4-Br)]R[dW]CKP-NH2; disulfide 2-8), for which, on human MC4R, the “MC4R selectivity vs MC1R” value turned out to be 1.12 and the “MC4R selectivity vs MC3R” value worked out at 2.73. For the same molecule, the Emax on human MC4R (setting [3]) stood at 69%. Further, at human MC3R [1], the Emax amounted to 13% and the EC50 worked out at 4 nM.

B1: CTX-1607 (peptide)
peptide: Ac-R[Nle]C[Cit][dF]RWC-NH2
modifications: disulfide 3-8
SMILES: CCCC[C@H](NC(=O)[C@H](CCCNC(=N)N)NC(C)=O)C(=O)N[C@H]1CSSC[C@@H](C(N)=O)NC(=O)[C@H](Cc2c[nH]c3ccccc23)NC(=O)[C@H](CCCNC(=N)N)NC(=O)[C@@H](Cc2ccccc2)NC(=O)[C@H](CCCNC(N)=O)NC1=O
Turning to B1, in the assay with human MC3R [2], the “% max activation” value was determined as 47% and the “cAMP EC50” value came out at 14 nM.

B2: CTX-1293 (peptide)
peptide: Ac-RCGR[dF]RWC-NH2
modifications: disulfide 2-8
SMILES: CC(=O)N[C@@H](CCCNC(=N)N)C(=O)N[C@H]1CSSC[C@@H](C(N)=O)NC(=O)[C@H](Cc2c[nH]c3ccccc23)NC(=O)[C@H](CCCNC(=N)N)NC(=O)[C@@H](Cc2ccccc2)NC(=O)[C@H](CCCNC(=N)N)NC(=O)CNC1=O
B2: in the assay with human MC4R receptor, the “% max activation” value stood at 87% and the “cAMP EC50” value was 0.25 nM.

B3: CTX-1618 (peptide)
peptide: Ac-R[Nle]C[hCit][dF]RWC-NH2
modifications: disulfide 3-8
SMILES: CCCC[C@H](NC(=O)[C@H](CCCNC(=N)N)NC(C)=O)C(=O)N[C@H]1CSSC[C@@H](C(N)=O)NC(=O)[C@H](Cc2c[nH]c3ccccc23)NC(=O)[C@H](CCCNC(=N)N)NC(=O)[C@@H](Cc2ccccc2)NC(=O)[C@H](CCCCNC(N)=O)NC1=O
For the molecule B3, in the assay with human MC3R [2], the “% max activation” value was 33% and the “cAMP EC50” value worked out at 29 nM.

B4: CTX-1637 (peptide)
peptide: Ac-CGH[dF]RFC-NH2
modifications: disulfide 1-7
SMILES: CC(=O)N[C@H]1CSSC[C@@H](C(N)=O)NC(=O)[C@H](Cc2ccccc2)NC(=O)[C@H](CCCNC(=N)N)NC(=O)[C@@H](Cc2ccccc2)NC(=O)[C@H](Cc2c[nH]cn2)NC(=O)CNC1=O
Regarding B4, in the assay with human MC3R [2], the “% max activation” value turned out to be 98% and the “cAMP EC50” value stood at 68 nM.

B5: CTX-1625 (peptide)
peptide: Ac-R[Nle]CH[dF]RFC-NH2
modifications: disulfide 3-8
SMILES: CCCC[C@H](NC(=O)[C@H](CCCNC(=N)N)NC(C)=O)C(=O)N[C@H]1CSSC[C@@H](C(N)=O)NC(=O)[C@H](Cc2ccccc2)NC(=O)[C@H](CCCNC(=N)N)NC(=O)[C@@H](Cc2ccccc2)NC(=O)[C@H](Cc2c[nH]cn2)NC1=O
Turning to B5, in the assay with human MC4R receptor, the “% max activation” value amounted to 101% and the “cAMP EC50” value worked out at 38 nM.

B6: CTX-1655 (peptide)
peptide: {CH2CO}-G[Cit][dF]RFC-NH2
modifications: thioether N-6
On to B6, for which the “cAMP EC50” value with human MC3R [2] and with human MC4R receptor was greater than 10000 nM in each case.

B7: CTX-1652 (peptide)
peptide: {CH2CO}-[Aib][Cit][dF]RFC-NH2
modifications: thioether N-6
Turning to B7, the “cAMP EC50” value with human MC3R [2] and with human MC4R receptor was greater than 10000 nM each time.

(Values after patent publication US20240391954A1, “MC4R AGONIST PEPTIDES” (The Regents of the University of Michigan, priority 2021, published 2024).)
